Where “and” joins values, the source holds several entries; their conditions need not be identical. Equal values may be shown once.
| Compound | melting point |
| --- | --- |
| COc1cc(C=O)cc(OC)c1 [3,5-dimethoxybenzaldehyde] | 46.3 °C |
| Nc1ccc(N=Nc2ccccc2)c(N)n1 [phenazopyridine] | 139 °C |
| CCCCCCBr [1-bromohexane] | -85 °C |
| CCc1cc2cc(OC)c(OC)cc2c(Cc2ccccc2)n1 [moxaverine] | 78 °C |
| O=C\1\C=C5/[C@@](/C=C/1)(C)[C@]2(F)[C@H]([C@H]3[C@](C[C@@H]2O)([C@@]4(OC(O[C@@H]4C3)(C)C)C(=O)CO)C)CC5 [triamcinolone acetonide] | 293 °C |
| c1ccc(C(CCN2CCCCC2)c2ccccc2)cc1 [fenpiprane] | 41 °C |
| COc1c(Cl)cccc1Cl [2,6-dichloroanisole] | 10 °C |
| COc1ccccc1-c1ccc(C=C(C(C)=O)C(C)=O)o1 [3-{[5-(2-Methoxyphenyl)-2-furyl]methylene}pentane-2,4-dione] | 146 °C |
| ON=Cc1ccncc1 [pyridine-4-carboxaldoxime] | 132 °C |
| O=C(O)CCCC[C@@H]1CCSS1 [5-[(3R)-1,2-Dithiolan-3-yl]pentanoic acid] | 60 °C |
| c1ccc(CCc2ccccc2)cc1 [bibenzyl] | 52 °C |
| O=C(/C=C/c1ccccc1)c1ccc(O)cc1 [4'-hydroxychalcone] | 176 °C |
| NCc1ccccn1 [2-(aminomethyl)pyridine] | -20 °C |
| O=Cc1cc(O)ccc1O [2,5-dihydroxybenzaldehyde] | 99 °C |
| Cc1ccc(Br)cc1 [1-Bromo-4-methylbenzene] | 28.5 °C |
| O=C(O)Cc1ccccc1O [2-Hydroxyphenylacetic acid] | 149 °C |
| O=C1OC2(c3ccccc31)c1ccc(O)c(Br)c1Oc1c2ccc(O)c1Br [4',5'-dibromofluorescein] | 272 °C |
| CC[C@@H]1OC(=O)[C@H](C)C(=O)[C@H](C)[C@@H](O[C@@H]2O[C@H](C)C[C@H](N(C)C)[C@H]2O)[C@](C)(OC)C[C@@H](C)C(=O)[C@H](C)[C@H]2N(CCCCn3cnc(-c4cccnc4)c3)C(=O)O[C@@]12C [Telithromycin] | 182 °C |
| CC(=O)Oc1ccc(C(C)=O)cc1 [p-acetoxy_acetophenone] | 54 °C |
| c1ccc(Nc2ccccc2)cc1 [Diphenylamine] | 53 °C |
| CC1=CCC2CC1C2(C)C (stereo not drawn) [a-pinene] | -62 °C |
| COC(=O)/C=C/C(=O)OC [dimethyl_fumarate] | 104 °C |
| Nc1ccccc1C(=O)OCC=Cc1ccccc1 [anthranilic acid cinnamyl ester] | 65 °C |
| Clc1c2ccccc2cc2ccccc12 [9-Chloroanthracene] | 104 °C |
| Nc1cccc(C(F)(F)F)c1 [3-(trifluoromethyl)aniline] | 6 °C |

| Compound | melting point |
| --- | --- |
| COc1ccc(N)c(C)c1 [4-methoxy-2-methylaniline] | 14 °C |
| NCCCCNCCCN [spermidine] | 24 °C |
| [2H]C1([2H])OC([2H])([2H])C([2H])([2H])C1([2H])[2H] [(~2~H_8_)Tetrahydrofuran] | -106 °C |
| O=C=Nc1cccc2ccccc12 [1-naphthyl isocyanate] | 4 °C |
| O=C1C(=O)c2ccccc2-c2ccccc21 [9,10-phenanthrenequinone] | 210 °C |
| [2H]C([2H])([2H])C([2H])([2H])C([2H])([2H])C([2H])([2H])C([2H])([2H])C([2H])([2H])C([2H])([2H])C([2H])([2H])C([2H])([2H])[2H] [(~2~H_20_)Nonane] | -53 °C |
| N#Cc1ccc2c(c1)N(CCCN1CCC(O)CC1)c1ccccc1S2 [Propericiazine (JAN)] | 82 °C |
| CCn1cc(C(=O)O)c(=O)c2cc(F)c(N3CCNCC3)cc21 [norfloxacin] | 220 °C |
| Cc1cc(C=O)c(C)n1-c1ccccn1 [OSM-S-44] | 62.5 °C |
| O=C(O)[C@H](O)[C@@H](O)C(=O)O [L-tartaric acid] | 169 °C |
| CCCCc1ccc(C(N)=O)cc1 [4-n-butylbenzamide] | 128 °C |
| COC(=O)c1ccccc1N [methyl anthranilate] | 24 °C |
| [O-][n+]1onc2ccccc21 [benzofuroxan] | 69 °C |
| CC(C)CC1=C/C(=C/c2ccc(-c3ccc([N+](=O)[O-])cc3)o2)C(=O)O1 | 163 °C |
| c1ccc2c(c1)Cc1ccccc1-2 [fluorene] | 116 °C |
| Oc1cccc2ccccc12 [1-naphthol] | 96 °C |
| CC(=O)CC(C)C [4-Methylpentan-2-one] | -80 °C |
| NC(=O)/C=C\C(=O)O [(2Z)-4-Amino-4-oxobut-2-enoic acid] | 160 °C |
| CCCCCCCC(=O)OCC [ethyl octanoate] | -47 °C |
| CCOC(=O)Nc1ccc(NCc2ccc(F)cc2)nc1N [flupirtine] | 114 °C |
| O=C(O)c1cc([N+](=O)[O-])cc([N+](=O)[O-])c1O [3,5-dinitrosalicylic acid] | 171 °C |
| CC(C)C(C)(C)C(C)(C)C [2,2,3,3,4-pentamethylpentane] | -36 °C |
| CC1=C(C#N)c2ccccc2C1 [2-methyl-1H-indene-3-carbonitrile] | 70 °C |
| O=C(Cl)c1nc2ccccc2s1 [benzothiazole-2-carbonyl chloride] | 114 °C |
| CCCCCCCCCCCCS[C@H](C(=O)Nc1cc(C)c(O)c(C)c1C)c1ccccc1 [eflucimibe] | -144 °C |

| Compound | melting point |
| --- | --- |
| O=C(O)Cc1ccc(O)cc1 [4-hydroxyphenylacetic acid] | 152 °C |
| CCCCCCCCCCCCCCCCCCCCCCCCCCCCCCCCC [Tritriacontane] | 72 °C |
| Nc1ccccc1 [aniline] | -6 °C |
| Cc1cc(C)cc(O)c1 [3,5-dimethylphenol] | 63.4 °C and 65.5 °C |
| O=[N+]([O-])c1ccc(Oc2ccc(Cl)cc2Cl)cc1 [2,4-Dichloro-1-(4-nitrophenoxy)benzene] | 70.5 °C |
| OCc1ccc(Cl)cc1 [4-chlorobenzyl alcohol] | 71 °C |
| Nc1c(Cl)cc(C(F)(F)F)cc1[N+](=O)[O-] [2-chloro-6-nitro-4-(trifluoromethyl)aniline] | 65 °C |
| COc1ccc(N)cc1 [p-anisidine] | 58 °C |
| CCN(CC)C(=S)SSC(=S)N(CC)CC [disulfiram] | 70 °C |
| OB(O)c1ccc(Br)c(F)c1F [4-bromo-2,3-difluorobenzeneboronic acid] | 225 °C |
| c1ccc2c(c1)Cc1ccccc1O2 [xanthene] | 100 °C (2×) and 102 °C |
| CC1(C)OC(=O)C(=Cc2cccc([N+](=O)[O-])c2)C(=O)O1 | 177 °C |
| O=C(O)c1ccc(Br)cc1 [p-bromobenzoic acid] | 252 °C |
| CCN1CCCC1CNC(=O)c1cc(S(N)(=O)=O)ccc1OC (stereo not drawn) [sulpiride] | 178 °C |
| CCC [propane] | -188 °C |
| C=C[C@H]1C[N@@]2CC[C@H]1C[C@H]2[C@H](O)c1ccnc2ccccc12 [cinchonidine] | 204 °C |
| CC1(C)C[C@@H](C(=O)O)[C@@H]1N (relative stereo) [trans-2-Amino-3,3-dimethylcyclobutane-1-carboxylic acid] | 155 °C |
| N#Cc1ccc(Oc2ccccc2)cc1 [4-phenoxybenzonitrile] | 44 °C |
| CCOC(=O)c1ccc(O)cc1 [ethyl 4-hydroxybenzoate] | 117 °C |
| O=S(=O)(Cl)Cc1ccc(C(F)(F)F)cc1 [4-trifluoromethyl-alpha-toluenesulfonyl chloride] | 104 °C |
| CCCCCCCCCC [Decane] | -30 °C and -29.7 °C |
| Oc1cccc(Cl)c1Cl [2,3-Dichlorophenol] | 56 °C |
| CCCCc1ccc(NC(=O)c2ccc(OC)cc2)cc1 [benzamide, N-(4-butylphenyl)-4-methoxy-] | 147 °C |
| O=C(S)c1ccccc1 [thiobenzoic acid] | 17 °C |
| Cc1noc(NS(=O)(=O)c2ccc(N)cc2)c1C [Sulfisoxazole] | 194 °C |

| Compound | melting point |
| --- | --- |
| Cc1ncc(CO)c(C=O)c1O [Pyridoxal] | 172 °C |
| ON=Cc1c(F)cccc1Cl [2-chloro-6-fluorobenzaldoxime] | 126 °C |
| Cc1ccc(N)cc1F [3-fluoro-4-methylaniline] | 33 °C |
| O=[N+]([O-])c1ccc(Cl)cc1 [1-chloro-4-nitrobenzene] | 84 °C |
| CC(=O)OC1CCC2C3CCC4CC=CCC4(C)C3CCC12C (stereo not drawn) [androst-2-en-17-yl acetate] | 94 °C |
| OC(C(F)(F)F)C(F)(F)F [1,1,1,3,3,3-hexafluoro-2-propanol] | -3 °C |
| CCCCCCCCCCCCCCc1ccccc1 [N-tetradecylbenzene] | 9 °C |
| CC(=O)O [acetic acid] | 17 °C |
| CCCCC=O [Pentanal] | -91.5 °C |
| C=CCCl [3-Chloroprop-1-ene] | -134 °C |
| COC(=O)c1ccccc1O [methyl salicylate] | -9 °C |
| O=C(O)C1(C(=O)O)CC1 [1,1-cyclopropanedicarboxylic acid] | 132 °C |
| N#CC(=CN(O)c1ccccc1)c1ccccc1 [3-[hydroxy(phenyl)amino]-2-phenylprop-2-enenitrile] | 155 °C |
| Cc1c(O)cccc1O [2-methylresorcinol] | 120 °C |
| C=CCC1(CC(C)C)C(=O)NC(=O)NC1=O [butalbital] | 138 °C |
| C[C@]12CC[C@@H]3c4ccc(O)cc4CC[C@H]3[C@@H]1CC[C@@H]2O [beta-estradiol] | 177 °C |
| COc1ccc2c(c1)C(O)OC2=O (stereo not drawn) [3-hydroxy-5-methoxy-2-benzofuran-1(3H)-one] | 137 °C |
| O=C1CC(=O)NC(=O)N1 [Barbituric acid] | 248 °C |
| COc1cc(N)c(C(C)=O)cc1OC [2'-amino-4',5'-dimethoxyacetophenone] | 106 °C |
| C/C(C)=CC=C(/C)C [2,5-dimethyl-2,4-hexadiene] | 13 °C |
| CCC#N [ethyl_cyanide] | -93 °C |
| COc1cc(C(=O)O)cc(OC)c1OC [3,4,5-trimethoxybenzoic acid] | 170 °C |
| N#Cc1ccc(Cl)cc1 [4-chlorobenzonitrile] | 92 °C |

Reference: the Bradley open melting point set (2014)
